The record followed here is patent US7022732B2, “Propanolamine derivative having 1, 4-benzodioxane ring” (Nisshin Pharma Inc., priority 2001, dated 2006).

This test concerns the target T1, human β3 adrenergic receptor (Homo sapiens, UniProt P13945).
T1 construct: expressed in transfected cells; host or cells: CHO cells (clone G4-I, kept under Geneticin selection)
The experiment in a line: cAMP production in G4-I cells, stimulating activity of human β3 adrenergic receptor (cAMP EIA). In kind it is cell-based. The note with it: cAMP production relative to isoproterenol maximum, CHO cells (G4-I) expressing human β3 receptor. The protocol: Representative compounds of the invention were assayed for their stimulating activity of human β3 adrenergic receptor. In the tests, there was used G4-I cloned with CHO cells expressing human β3 adrenergic receptor genes. A cAMP EIA kit for use was available from Amersham Farmacia.
G4-I was incubated under the atmosphere of 5% CO2 at 37° C. in a Han's F12 Nutrient Mixture medium containing 10% fetal calf serum, penicillin 100 U/mL, streptomycin 100 μg/mL, amphotericin B 25 μg/mL and Geneticin 400 μg/mL. When the reaction for cAMP production was carried out, frozen cells stocked were incubated for 3 days and then treated with trypsin to prepare a cell suspension. The cell suspension was diluted to 2×10^5 cells/mL with the medium. Then 1 ml each of the diluted suspension was dispensed into a 12-well plate dish.
The cells cultured for 24 hours were used to carry out the cAMP production reaction.
The culture medium was removed from the cells incubated on the 12-well plate dish. The cells were washed twice with 1 mL of Wash Buffer previously warmed to 37° C. and then 0.9 mL of Reaction Buffer was added. Cultivation was carried out on a water bath at 37° C. for 5 minutes and then 0.1 mL of an aqueous solution of the test compound or isoproterenol was added thereto. Reaction was further allowed to take place at 37° C. for 30 minutes. The reaction solution was taken out and then washed twice with 2 mL of D-PBS(-) followed by addition of 1 mL of the Extraction Buffer. The extraction procedure was performed using a plate mixer at 4° C. for 1 hour. The extract was stored at −20° C.
The cell extract frozen at −20° C. was thawed at 4° C. The cAMP of the extract in each well was assayed by means of a cAMP-EIA kit manufactured by Amersham Farmacia. Assay was performed in accordance with the manual attached to the kit. Adsorbance in a 96-well plate was determined using a microplate reader (Model Spectra MAX 250) manufactured by Molecular Device.
The protein amount of the above cell extract was assayed according to the dye-binding method using a CBB solution for quantitative determination of protein (available from Bio-Rad). Bovine serum albumin was used as a protein standard, and absorbance was determined using the above microplate reader (Model Spectra MAX 250) manufactured by Molecular Device.
Determination of cAMP and protein amounts was carried out in duplicate and mean values were adopted as measured values. The cAMP production amount of each sample was represented in terms of a numerical value of the cAMP amount (pmol) divided by cell protein amount (mg) (pmol/mg protein). […] For each sample, cAMP production amount was calculated and a relative cAMP production amount to the maximum cAMP production amount of isoproterenol (% of isoproterenol Max) was determined.

T1 sequence (P13945 whole entry): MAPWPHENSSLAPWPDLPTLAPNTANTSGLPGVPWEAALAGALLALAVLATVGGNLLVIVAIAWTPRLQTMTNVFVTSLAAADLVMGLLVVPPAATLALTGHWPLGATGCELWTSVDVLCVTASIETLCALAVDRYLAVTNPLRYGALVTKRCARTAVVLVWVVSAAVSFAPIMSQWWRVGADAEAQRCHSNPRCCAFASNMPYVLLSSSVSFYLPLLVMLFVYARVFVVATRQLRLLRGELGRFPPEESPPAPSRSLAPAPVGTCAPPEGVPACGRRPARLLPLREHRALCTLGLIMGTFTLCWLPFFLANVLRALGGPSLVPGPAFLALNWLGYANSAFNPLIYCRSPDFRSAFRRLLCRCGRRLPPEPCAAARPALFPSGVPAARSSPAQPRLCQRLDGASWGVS

Take `C[C@H](Cc1ccc2c(c1)OC[C@H](C(=O)O)O2)NC[C@H](O)COc1ccc(O)c(NS(C)(=O)=O)c1` [Example 2, 6-[2-(R)-[2-(S)-Hydroxy-3-(4-hydroxy-3-methanesulfonamidophenoxy)propylamino]propyl]-2,3-dihydro-1,4-benzodioxine-2-(R)-carboxylic acid]: the “Intrinsic Activity (% of ISP)” value (test compound 1 μM) was 76 % of ISP. Consider `CS(=O)(=O)Nc1cc(OC[C@@H](O)CNCCc2ccc3c(c2)OC[C@H](C(=O)O)O3)ccc1O` [Example 4, 6-[2-[2-(S)-Hydroxy-3-(4-hydroxy-3-methanesulfonamido-phenoxy]propylamino]ethyl]-2,3-dihydro-1,4-benzodioxine-2-(R)-carboxylic acid], for which the “Intrinsic Activity (% of ISP)” value (test compound 1 μM) is listed as 98 % of ISP. The same measure, in the same setting: as for `COc1cc(O)ccc1OC[C@@H](O)CN[C@H](C)Cc1ccc2c(c1)OC[C@H](C(=O)O)O2` [Example 16, 6-[2-(R)-[2-(S)-Hydroxy-3-(4-hydroxy-2-methoxyphenoxy)-propylamino]propyl]-2,3-dihydro-1,4-benzodioxine-2-(R)-carboxylic acid], the figure is 61 % of ISP. Consider `C[C@H](Cc1ccc2c(c1)OC[C@H](C(=O)O)O2)NC[C@H](O)COc1ccc(O)cc1` [Example 12, 6-[2-(R)-[2-(S)-Hydroxy-3-(4-hydroxyphenoxy)propylamino]-propyl]-2,3-dihydro-1,4-benzodioxine-2-(R)-carboxylic acid], for which the “Intrinsic Activity (% of ISP)” value (test compound 10 μM) was 73 % of ISP.
